According to US8455451B2, “2'-fluoro substituted carba-nucleoside analogs for antiviral treatment” (Gilead Sciences, Inc., priority 2009, dated 2013):
pEC50, pIC50: −log10 of the molar value. Like-named read-outs stand apart in the source and are kept apart here.

What was measured:
[1] = biological target: T1, wild type HCV Δ21 NS5b polymerase (Hepatitis C virus genotype 1b, UniProt Q9WMX2); assay: HCV IC50 determination, NS5b polymerase assay, wild type enzyme; type: biochemical
T1 construct: 75 nM HCV Δ21 NS5b polymerase
Procedure: (§1) Assay Protocol: Either wild type or S282T (Migliaccio, et al, J. Biol. Chem. 2003, 49164-49170; Klumpp, et al., J. Biol. Chem. 2006, 3793-3799) mutant polymerase enzyme was used in this assay. NS5b polymerase assay (40 μL) was assembled by adding 28 μL, polymerase mixture (final concentration: 50 mM Tris-HCl at pH 7.5, 10 mM KCL, 5 mM MgCl2, 1 mM DTT, 10 mM EDTA, 4 ng/μL of RNA template, and 75 nM HCV Δ21 NS5b polymerase) to assay plates followed by 4 μL of compound dilution. The polymerase and compound were pre-incubated at 35° C. for 10 minute before the addition of 8 μL of nucleotide substrate mixture (33P-α-labeled competing nucleotide at KM and 0.5 mM of the remaining three nucleotides). The assay plates were covered and incubated at 35° C. for 90 min. Reactions were then filtered through 96-well DEAE-81 filter plates via vacuum. The filter plates were then washed under vacuum with multiple volumes of 0.125 M NaHPO4, water, and ethanol to remove unincorporated label. Plates were then counted on TopCount to assess the level of product synthesis over background controls. The IC50 value is determined using Prism fitting program.

[2] = biological target: T2, S282T mutant HCV Δ21 NS5b polymerase (Hepatitis C virus genotype 1b, UniProt Q9WMX2, S2701T); assay: biochemical; details: for fold shift (S282T IC50 vs WT IC50): Note of Table II
T2 construct: 75 nM HCV Δ21 NS5b polymerase
Procedure: as §1

HCV replicon cells = assay: HCV EC50 determination, replicon luciferase assay; type: cell-based; details: Hepatitis C virus, 72 h
Procedure: Replicon cells were seeded in 96-well plates at a density of 8×10^3 cells per well in 100 μL of culture medium, excluding Geneticin. Compound was serially diluted in 100% DMSO and then added to the cells at a 1:200 dilution, achieving a final concentration of 0.5% DMSO and a total volume of 200 μL. Plates were incubated at 37° C. for 3 days, after which culture medium was removed and cells were lysed in lysis buffer provided by Promega's luciferase assay system. Following the manufacturer's instruction, 100 μL of luciferase substrate was added to the lysed cells and luciferase activity was measured in a TopCount luminometer.

[3] = system: Huh-luc/neo replicon cells; assay: Metabolism study: intracellular triphosphate analog concentration; type: in vitro ADME; details: PD-A-8b to TP-8a versus B-7 to TP-3, Huh-luc/neo replicon cells
Excerpt: Applicants have observed that monophosphate prodrugs of nucleoside analogs with a nitrogen at the X^1 position can have enhanced activity over their counterparts with a carbon at the X^1 position. This difference in activity correlates to the amount of the active triphosphate analogs of the compounds in cells. This can be quantified by a metabolism study which quantifies the intracellular concentration of the triphosphate analogs. The higher intracellular concentration of the triphosphate metabolite correlates to the prodrug with enhanced activity.
Huh-luc/neo replicon cells containing HCV genotype 1b subgenomic replicons were maintained in Dulbecco's modified eagle medium containing glutamax supplemented with 10% heat inactivated fetal bovine serum, penicillin-streptomycin, and G418 disulphate salt solution. Cells were transferred to twelve well tissue culture plates by trypsonization and grown to confluency (0.88×10^6 cells/well). Cells were treated for 24 hours with 10 μM nucleoside, or 10 μM prodrug. After 24 hours, cells were washed 2 times with 2.0 mL ice cold 0.9% sodium chloride saline. […] Intracellular levels of the nucleoside triphosphates were quantified based on authentic standard curves by liquid chromatography coupled to tandem mass spectrometry.

[4] = biological target: T1, wild type HCV Δ21 NS5b polymerase; details: read-out: WT IC50, value taken from the source in the Note column; cited from earlier work
[5] = biological target: T2, S282T mutant HCV Δ21 NS5b polymerase; details: value taken from the source in the Note column; cited from earlier work
[6] = replicon cells, 3 days incubation, luciferase readout, read-out: EC50

Compound	pEC50 (HCV replicon cells; [6])	other results
C[C@@]1(F)[C@H](O)[C@@H](COP(=O)(O)OP(=O)(O)OP(=O)(O)O)O[C@H]1c1ccc2c(N)ncnn12		pIC50 [1]: 7.47
C[C@@]1(F)[C@H](O)[C@@H](COP(=O)(O)OP(=O)(O)OP(=O)(O)O)O[C@H]1c1cnc2c(N)ncnn12		pIC50 [2]: 5.80; fold shift (S282T IC50 vs WT IC50) [2]: (5.3 fold shift); pIC50 [1]: 6.52
CC(C)OC(=O)OCOP(=O)(OCOC(=O)OC(C)C)OC[C@H]1O[C@@](C#N)(c2ccc3c(N)ncnn23)[C@](C)(F)[C@@H]1O [Compound 10]	5.10 to 5.19	
C[C@@]1(F)[C@H](O)[C@@H](COP(=O)(O)NCCc2c[nH]c3ccccc23)O[C@@]1(C#N)c1ccc2c(N)ncnn12 [Compound 22]	4.35 to 4.51	
C[C@@]1(F)[C@@H]2OP(=O)(O)OC[C@H]2O[C@@]1(C#N)c1ccc2c(N)ncnn12 [Compound 23]	4.39 to 4.40	
CC(C)OP1(=O)OC[C@H]2O[C@@](C#N)(c3ccc4c(N)ncnn34)[C@](C)(F)[C@@H]2O1 (stereo partly shown) [Compound 24]	4.15 to 4.39	
CCCCCCCOC(=O)[C@H](C)NP1(=O)OC[C@H]2O[C@@](C#N)(c3ccc4c(N)ncnn34)[C@](C)(F)[C@@H]2O1 (stereo partly shown) [Compound 25]	5.00 to 5.01	
CC(C)(C)C(=O)SCCOP(=O)(OCCSC(=O)C(C)(C)C)OC[C@H]1O[C@@H](c2cnc3c(N)nc(N)nn23)[C@](C)(F)[C@@H]1O [Compound A-1]	4.64	
CCOC(=O)[C@H](C)NP(=O)(OC[C@H]1O[C@@](C#N)(c2ccc3c(N)ncnn23)[C@](C)(F)[C@@H]1O)Oc1ccccc1 (stereo partly shown) [Compound B-1]	5.37 to 5.85	
CC(C)OC(=O)[C@H](C)NP(=O)(OC[C@H]1O[C@@](C#N)(c2ccc3c(N)ncnn23)[C@](C)(F)[C@@H]1O)Oc1ccccc1 (stereo partly shown) [Compound B-3]	4.55 to 4.80	
CCC(CC)COC(=O)C(C)(C)NP(=O)(OC[C@H]1O[C@@](C#N)(c2ccc3c(N)ncnn23)[C@](C)(F)[C@@H]1O)Oc1ccccc1 (stereo partly shown) [Compound B-4]	4.72 to 5.08	
CCOC(=O)CNP(=O)(OC[C@H]1O[C@@](C#N)(c2ccc3c(N)ncnn23)[C@](C)(F)[C@@H]1O)Oc1ccccc1 (stereo partly shown) [Compound B-5]	4.59 to 5.71	
CCOC(=O)[C@H](C)NP(=O)(OC[C@H]1O[C@@](C#N)(c2ccc3c(N)ncnn23)[C@](C)(F)[C@@H]1O)Oc1cccc2ccccc12 (stereo partly shown) [Compound B-6]	4.95 to 5.43	
CCOC(=O)[C@H](C)NP(=O)(OC[C@H]1O[C@@H](c2ccc3c(N)ncnn23)[C@](C)(F)[C@@H]1O)Oc1ccccc1 (stereo partly shown) [Compound B-7]	4.14 to 4.20	
CCOC(=O)[C@H](C)NP(=O)(OC[C@H]1O[C@@H](c2ccc3c(N)ncnn23)[C@](C)(F)[C@@H]1O)Oc1cccc2ccccc12 (stereo partly shown) [Compound B-8]	4.22 to 4.46	
CCOC(=O)[C@@H](NP(=O)(OC[C@H]1O[C@@](C#N)(c2ccc3c(N)ncnn23)[C@](C)(F)[C@@H]1O)Oc1ccccc1)C(C)C (stereo partly shown) [Compound C-1]	4.15 to 4.17	
CCOC(=O)[C@H](CCSC)NP(=O)(OC[C@H]1O[C@@](C#N)(c2ccc3c(N)ncnn23)[C@](C)(F)[C@@H]1O)Oc1ccccc1 (stereo partly shown) [Compound C-2]	4.92 to 5.41	
CCOC(=O)[C@H](Cc1c[nH]c2ccccc12)NP(=O)(OC[C@H]1O[C@@](C#N)(c2ccc3c(N)ncnn23)[C@](C)(F)[C@@H]1O)Oc1ccccc1 (stereo partly shown) [Compound C-3]	4.08 to 4.37	
CCOC(=O)[C@H](Cc1ccccc1)NP(=O)(OC[C@H]1O[C@@](C#N)(c2ccc3c(N)ncnn23)[C@](C)(F)[C@@H]1O)Oc1ccccc1 (stereo partly shown) [Compound C-4]	4.51 to 5.01	
CCOC(=O)[C@@H]1CCCN1P(=O)(OC[C@H]1O[C@@](C#N)(c2ccc3c(N)ncnn23)[C@](C)(F)[C@@H]1O)Oc1ccccc1 (stereo partly shown) [Compound C-5]		pEC50 (HCV replicon cells): 4.55 to 4.62
CCOC(=O)[C@H](CCS(C)(=O)=O)NP(=O)(OC[C@H]1O[C@@](C#N)(c2ccc3c(N)ncnn23)[C@](C)(F)[C@@H]1O)Oc1ccccc1 (stereo partly shown) [Compound C-6]	4.96	
CCOC(=O)[C@H](C)NP(=O)(OC[C@H]1O[C@@H](c2cnc3c(N)ncnn23)[C@](C)(F)[C@@H]1O)Oc1ccccc1 (stereo partly shown) [PD-A-8b]	6.17	efficiency of activation of prodrug to its triphosphate analog, compared with B-7 [3]: more than two orders of magnitude more efficient
C[C@@]1(F)[C@H](O)[C@@H](COP(=O)(O)OP(=O)(O)OP(=O)(O)O)O[C@H]1c1cnc2c(=O)[nH]c(N)nn12 [TP-1]		pIC50 [2]: 6.82; fold shift (S282T IC50 vs WT IC50) [2]: (1 fold shift); pIC50 [1]: 6.82
C[C@@]1(F)[C@H](O)[C@@H](COP(=O)(O)OP(=O)(O)OP(=O)(O)O)O[C@@]1(C#N)c1ccc2c(N)ncnn12 [TP-2]		pIC50 [2]: 5.80; fold shift (S282T IC50 vs WT IC50) [2]: (7 fold shift); pIC50 [1]: 6.62
C[C@@]1(O)[C@H](O)[C@@H](COP(=O)(O)OP(=O)(O)OP(=O)(O)O)O[C@@]1(C#N)c1ccc2c(N)ncnn12 [triphosphate of (2R,3R,4R,5R)-2-(4-aminopyrrolo[1,2-f][1,2,4]triazin-7-yl)-3,4-dihydroxy-5-(hydroxymethyl)-3-methyl-tetrahydrofuran-2-carbonitrile]		fold shift (S282T IC50 vs WT IC50) [2]: WO/2009/132135 (242 fold shift); pIC50 [4]: 6.28; pIC50 [5]: 3.95
